According to patent EP0663826B1, “AMINO ACIDS CONTAINING PARENTERAL FORMULATIONS FOR THE TREATMENT OF HYPOTENSION AND RELATED PATHOLOGIES” (BOARD OF REGENTS THE UNIVERSITY OF TEXAS SYSTEM, priority 1991, dated 1993):

What was measured:
[1] = test system: Actinomycin D-Treated L929 Cells; assay: Cytolytic activity of rh-TNF against L929 cells; format: cell-based, murine; conditions: for TNF Activity: without NMMA 594.5
Protocol: TNF bioactivity was measured by the cytotoxicity towards murine L929 cells, in vitro. […]

[2] = test system: endotoxin-induced shock in dogs; assay: Endotoxin-induced hypotension in dogs (with nitroglycerin and control dogs); format: in vivo
Protocol: Animals: Studies were carried out on 12 conditioned mongrel dogs (9 males and 3 females) weighing 22-32 kg (avg=25.3 kg). Animal care was in accordance with the recommendations of the American Association for Accreditation of Laboratory Animal Care, and met all standards prescribed by the Guide for the Care and Use of Laboratory Animals (Guide for the Care and Use of Laboratory Animals (1978) Dept. of Health, Education and Welfare, Washington, D.C. (Publ. No. 78-23). Animal protocols were approved by The University of Texas Animal Welfare committee. The dogs were fasted overnight prior to the day of experimentation. They were anesthetized with sodium pentobarbital (25 mg/kg i.v.). Dogs were then endotracheally intubated and ventilated with a piston-driven respirator (Harvard instruments) using room air at a tidal volume of 15 ml/kg and at a rate of 12 to 14 breaths per minute, adjusted to achieve a normal arterial pH and pCO2 (Instrumentation Laboratories lL1302 pH/Blood Gas Analyzer). Catheters were placed percutaneously into the femoral and pulmonary arteries; In the latter, a flow-directed thermal-dilation catheter was used (Abbott Critical Care Systems).
Physiologic measurements: Mean SAP and heart rate were continuously monitored (Parametron 7048 Monitoring System, Roche) and stored on a magnetic disk using an analog-to-digital converter (Scientific Solutions, Inc.). Cardiac output (CO) was determined as the mean of six measurements by thermal-dilution. Systemic vascular resistance was calculated as (SAP X80)/CO and expressed as dynes-sec/cm^5 (kg/s·cm^4).
Protocol: After the blood pressure and heart rate stabilized, endotoxin (40 µg/kg, in 10 ml of phosphate-buffered saline (PBS), pH 7.4) was infused i.v. over 2 minutes. This dose of endotoxin typically induces severe and often lethal cardiovascular collapse in the dog. Blood pressure was monitored, and when either SAP fell below 60 mm Hg or a stable nadir in systemic arterial pressure (SAP) was maintained for 10 minutes, L-NMA was administered (20 mg/kg in 5 ml of PBS i.v. over 1 min.). In most experiments, L-arginine (400 mg/kg in 20 ml PBS) was administered ten minutes later by i.v. infusion over 2 minutes. In control experiments, dogs without prior exposure to endotoxin received L-NMA alone. To simulate the hypotension observed in dogs receiving endotoxin, one group of dogs received a continuous i.v. infusion of nitroglycerin (2 mg/ml) at a rate adjusted to maintain the SAP at 60-70 mm Hg. Nitroglycerin-treated dogs then received L-NMA (20 mg/kg) and 20 minutes later L-arginine was administered ([…]).
Statistics: Statistical significance was evaluated using Student's test and either a one-tailed or two-tailed analysis as appropriate for comparisons.

[3] = test system: hypotension associated with the administration of TNF in the dog; assay: TNF-induced hypotension in the dog; format: in vivo, dogs
Protocol: Recombinant human TNF, specific activity 2 x 10^7 units/mg, was from the Dainippon Chemical Corporation, Tokyo, Japan. TNF was administered at a dose of 10 µg//kg in a volume of 10 ml of phosphate buffered saline containing 17 mg/ml of dog albumin. […] Arginine was obtained from Sigma Chemical Company, St. Louis, Mo.
Four conditioned mongrel dogs, 2 males and 2 females, weighing 28 to 30 kg, were studied. Care of the animals were in accordance with the recommendations of the American Association for Accreditation of Laboratory Animals [DHEW(DHHS) publication no. (NIH) 78-23, revised, 1978]. On the day of the experiment, the dogs were fasted overnight. They were anesthetized with phenobarbital (25 mg/kg). The animals were then intubated orally with a #10 fr. endotracheal tube and ventilated with a Harvard pump ventilator at a rate of 14 breaths per minute and a tidal volume of 15 ml/kg. An arterial line was percutaneously placed in the femoral artery on the day of the experiment.
Mean (electronic) and phasic systemic arterial pressures (SAP) were continuously recorded on a Hewlett-Packard recording system (model 7758B) using strain gauge manometers (Hewlett-Packard model 1290A) which were connected to the arterial line. Heart rate (HR) was determined from an EKG tracing and continuously recorded on the Hewlett-Packard recording system. Oxyhemoglobin saturation (SaO2) was obtained using a pulse oximeter (BIOX 111, Boulder, CO). Continuous time-series records of SAP, HR, and SaO2 were obtained using a Lab Master analog-to-digital convertor (16 channel, 12 bit, 30 kHz; Scientific Solutions, Inc.) sampling at 55 Hz and storing the 6 sec averages on a magnetic disk.

[4] = test system: ^51Cr-labeled Raji Target cells; assay: IL-2 mediated lymphokine activated killer cell activity in vitro; format: cell-based, human
pithed rats = assay: Blood pressure response to phenylephrine in pithed rats without/with arginase; format: in vivo; conditions: for Blood Pressure Increase With Arginase Ave. ± S.D.: after arginase; for difference in pressor response between control and endotoxic animals: phenylephrine 6 µg/Kg
Protocol: Animals were pithed as described in Example 1. Blood pressure measurements were obtained also as described in Example 1. Arginase was also prepared according to the method described in Example 1.
Both left and right jugular veins were cannulated for drug administration; and left jugular was used for bolus administration of phenylephrine and the right jugular vein was used for continuous infusion of arginase. All animals from both groups (Control and Endotoxin) received phenylephrine in sequential doses of 0.3, 1.0, 2.0, or 6.0 ug/Kg.
Endotoxin (15 mg/kg body weight) was given by intravenous injection 6 hrs before the experiment began; arginase (300 I.U./Min. for 20 min.) was given intravenously to each rat after the "Without Arginase" measurements were made.
For the second, third and fourth rats, the blood pressure increments were 14, 32 and 9 before arginase, respectively, and 9, 20 and 10 after arginase, respectively.

[5] = Study 2: Nitroglycerin-treated dogs (n=3), means ± S.E., baseline 3.14 ± 0.21
[6] = Study 2: Nitroglycerin-treated dogs (n=3), means ± S.E., baseline 143.7 ± 12.1
[7] = Study 2: Nitroglycerin-treated dogs (n=3), means ± S.E., baseline 3294 ± 74
[8] = Study 2: Nitroglycerin-treated dogs (n=3), means ± S.E., continuous nitroglycerin (2 mg/ml) titrated to SAP 65 mm Hg, then L-NMA 20 mg/kg, then L-arginine, baseline 129.3 ± 10.2
[9] = Study 2: Nitroglycerin-treated dogs (n=3), value in brackets
[10] = Study #1: Control Animals, phenylephrine 0.3 µg/Kg
[11] = Study #1: Control Animals, phenylephrine 1.0 µg/Kg
[12] = Study #1: Control Animals, phenylephrine 2.0 µg/Kg
[13] = Study #1: Control Animals, phenylephrine 6.0 µg/Kg
[14] = Study #2: Endotoxic Animals, phenylephrine 0.3 µg/Kg
[15] = Study #2: Endotoxic Animals, phenylephrine 1.0 µg/Kg
[16] = Study #2: Endotoxic Animals, phenylephrine 2.0 µg/Kg
[17] = Study #2: Endotoxic Animals, phenylephrine 6.0 µg/Kg

CNC(=N)NCCC[C@H](N)C(=O)O [NMMA, N^ω-methyl-L-arginine]
TNF Activity ([1]; [NMMA] 0.125 mM): 536.9 Units/ml
TNF Activity ([1]; [NMMA] 0.250 mM): 538.2 Units/ml
TNF Activity ([1]; [NMMA] 0.500 mM): 562.4 Units/ml
TNF Activity ([1]; [NMMA] 1.0 mM): 415.7 Units/ml
effect on the cytolytic effect of TNF towards tumor cells in vitro ([1]; murine L929 cells): did not alter
time SAP maintained greater than 100 mm Hg by second dose of L-NMA ([2]; Figure 6 dog, endotoxin): 2 h
time blood pressure was maintained by the first dose of L-NMA ([2]; Figure 6 dog, endotoxin): 48 min
increase in SAP ([2]; Figure 6 dog, endotoxin hypotension 47 mm Hg, L-NMA 20 mg/kg, within 10 min): 73 mm Hg
Cardiac Output ([2]; Study 1: Endotoxin-treated dogs (n=4), means ± S.E., same sequence, baseline 2.99 ± 0.32): 2.03 ± 0.32 L/min
Heart Rate ([2]; Study 1: Endotoxin-treated dogs (n=4), means ± S.E., same sequence, baseline 119.5 ± 6.0): 123.3 ± 4.8 beats/min
Systemic Vascular Resistance ([2]; Study 1: Endotoxin-treated dogs (n=4), means ± S.E., same sequence, baseline 3565 ± 454): 4462 ± 552 dynes-sec/cm^5
Systemic Arterial Pressure ([2]; Study 1: Endotoxin-treated dogs (n=4), means ± S.E., sequence endotoxin 40 µg/kg, L-NMA 20 mg/kg, 10 min later L-arginine 400 mg/kg (measured 2 min later), baseline 128.3 ± 9.4): 107.3 ± 9.6 mmHg
Systemic Vascular Resistance ([2]; Study 1: Endotoxin-treated dogs (n=4), means ± S.E., value in brackets): 4.462 ± 0.552 Kg/s·cm^4
Cardiac Output [2, 5]: 3.85 ± 0.80 L/min
Heart Rate [2, 6]: 191.7 ± 35.0 beats/min
Systemic Vascular Resistance [2, 7]: 1858 ± 399 dynes-sec/cm^5
Systemic Arterial Pressure [2, 8]: 81.8 ± 3.5 mmHg
Systemic Vascular Resistance [2, 9]: 1.858 ± 0.399 Kg/s·cm^4
increase in SAP ([2]; control dogs not treated with endotoxin, L-NMA alone): 24.8 ± 2.7 mm Hg
Systemic Arterial Pressure ([2]; control dogs without endotoxin (n=4), means±S.E., L-NMA, baseline 129.0±10.9): 153.8±11.4 mm Hg
Cardiac Output ([2]; control dogs without endotoxin (n=4), means±S.E., baseline 3.54±0.68): 2.12 ± 0.26 L/min
Heart Rate ([2]; control dogs without endotoxin (n=4), means±S.E., baseline 121±17.9): 82.5±6.1 beats/min
Systemic Vascular Resistance ([2]; control dogs without endotoxin (n=4), means±S.E., baseline 3115±347): 5967±523 dynes-sec/cm^5
Systemic Vascular Resistance ([2]; control dogs without endotoxin (n=4), value in brackets): 5.967±0.523 Kg/cm^4·s
change in blood pressure ([2]; dogs with blood pressure reduced to 65 mm Hg by continuous i.v. nitroglycerin, L-NMA 20mg/kg): 17.1±5.0 mm Hg
duration normal blood pressure maintained ([2]; endotoxin-treated dog, additional dose of L-NMA (20 mg/kg) when blood pressure began to decrease): at least 2 hours
duration normal blood pressure restored ([2]; endotoxin-treated dog, single i.v. dose of L-NMA (20 mg/kg)): 30 to 60 min
HR and CO ([2]; endotoxin-treated dogs, L-NMA 20 mg/kg): unchanged
time to reversal of hypotension by L-NMA ([2]; endotoxin-treated dogs, L-NMA 20 mg/kg iv): ≤ 1.5 min
increase in SAP ([2]; endotoxin-treated dogs, L-NMA 20 mg/kg, p<0.01): 47.8 ± 6.8 mm Hg
decrease in cardiac output (Δ) ([2]; two of the four control dogs, L-NMA): ≥ 1.5 L/min
duration of NMMA-induced bradycardia ([3]; NMMA alone to untreated dogs (n=3)): 31 min
blood pressure increase ([3]; NMMA alone to untreated dogs (n=3), within 2 minutes after infusion): 12 mm Hg
blood pressure increase ([3]; NMMA in dogs infused with nitroglycerin 28 µg/kg/minute IV): 14 mm
increase in blood pressure after administration of NMMA ([3]; dog with severe TNF hypotension, 4.4 mg NMMA/kg, Figure 4a): 80 mm Hg
time to pressor effect of NMMA ([3]; dogs made hypotensive with TNF): ≤ 2 min
% Target Cell Lysis ([4]; [NMMA] 2.0 mM, same effector cells, without NMMA 66.1 ± 9.5): 75.1 ± 4.1%
effect on the proliferation phase or the lytic phase of human LAK cells exposed to IL-2 ([4]; in vitro): did not alter

O=[N+]([O-])OCC(CO[N+](=O)[O-])O[N+](=O)[O-] [Nitroglycerin]
Cardiac Output [2, 5]: 2.72 ± 0.27 L/min
Heart Rate [2, 6]: 137.3 ± 5.0 beats/min
Systemic Vascular Resistance [2, 7]: 1924 ± 132 dynes-sec/cm^5
Systemic Arterial Pressure [2, 8]: 64.7 ± 2.7 mmHg
Systemic Vascular Resistance [2, 9]: 1.924 ± 0.132 Kg/s·cm^4

CNC[C@H](O)c1cccc(O)c1 [Phenylephrine, phenylephrine]
Blood Pressure Increase Without Arginase Ave. ± S.D. (pithed rats; [10]): 17.8 ± 5.0 mm Hg
Blood Pressure Increase With Arginase Ave. ± S.D. (pithed rats; [10]): 13.3 ± 2.5 mm Hg
Blood Pressure Increase Without Arginase Ave. ± S.D. (pithed rats; [11]): 31.3 ± 4.0 mm Hg
Blood Pressure Increase With Arginase Ave. ± S.D. (pithed rats; [11]): 22.5 ± 6.1 mm Hg
Blood Pressure Increase Without Arginase Ave. ± S.D. (pithed rats; [12]): 51.0 ± 6.6 mm Hg
Blood Pressure Increase With Arginase Ave. ± S.D. (pithed rats; [12]): 38.8 ± 9.1 mm Hg
Blood Pressure Increase Without Arginase Ave. ± S.D. (pithed rats; [13]): 93.0 ± 10.3 mm Hg
Blood Pressure Increase With Arginase Ave. ± S.D. (pithed rats; [13]): 79.8 ± 13.4 mm Hg
Blood Pressure Increase Without Arginase Ave. ± S.D. (pithed rats; [14]): 2.2 ± 0.7 mm Hg
Blood Pressure Increase With Arginase Ave. ± S.D. (pithed rats; [14]): 2.0 ± 0.6 mm Hg
Blood Pressure Increase Without Arginase Ave. ± S.D. (pithed rats; [15]): 7.0 ± 1.1 mm Hg
Blood Pressure Increase With Arginase Ave. ± S.D. (pithed rats; [15]): 9.0 ± 1.8 mm Hg
Blood Pressure Increase Without Arginase Ave. ± S.D. (pithed rats; [16]): 13.6 ± 2.6 mm Hg
Blood Pressure Increase With Arginase Ave. ± S.D. (pithed rats; [16]): 23.3 ± 5.3 mm Hg
Blood Pressure Increase Without Arginase Ave. ± S.D. (pithed rats; [17]): 33.7 ± 9.6 mm Hg
Blood Pressure Increase With Arginase Ave. ± S.D. (pithed rats; [17]): 48.5 ± 7.6 mm Hg
difference in pressor response between control and endotoxic animals (pithed rats; animals given arginase): 31.3 mm Hg
difference in pressor response between control and endotoxic animals (pithed rats; animals not given arginase): 59.3 mm Hg
